# Measured values published in patent US20230082611A1, “COMPOSITIONS AND METHODS FOR THE TREATMENT OF RESPIRATORY SYNCYTIAL VIRUS” (Cidara Therapeutics, Inc., priority 2019, published 2023).
# Like-named read-outs stand apart in the source and are kept apart here.
# Tests used:
# RSV Long strain = assay: RSV microneutralization assay, RSV Long strain; format: cell-based; details: read-out: RSV Long EC50
# Method: (§1) Duplicate 10-fold serial dilutions of compound in DMEM with 2% HI-FBS, 1× P/S, 2 mM L-Gln were prepared in 96-well tissue culture plates at 60 μL/well. The RSV Long strain (RetroVirox, San Diego), RSV A2 strain (Virapur, San Diego), RSV B1 strain (RetroVirox, San Diego), or RSV strain CH18537 (RetroVirox, San Diego), were diluted in DMEM with 2% HI-FBS, 1× P/S, 2 mM L-Gln and 60 μL/well added to 60 μL compound for a multiplicity of infection (MOI) of 0.002 (Long, A2), 0.003 (B1), or 0.004 (CH18537). Virus only (no drug) and cells only (no virus, no drug) controls were included on each plate. The compound-virus mix was incubated for 1 h at 37° C. and 5% CO2. After 1 h, medium was removed from HEp-2 cells by aspiration and wells washed once with 100 μL/well 1×PBS pH 7.4 (Fisher cat #MT21040CM). The compound-virus mix (100 μL/well) was added to the cells and incubated for 1 h at 37° C. and 5% CO2 prior to addition of 100 μL/well of DMEM with 2% HI-FBS, 1× P/S, 2 mM L-Gln (200 μL final vol) and incubation at 37° C. and 5% CO2. On day 6 post infection, supernatant was aspirated and cells fixed with 100 μL/well ice-cold 80% acetone in 1×PBS for 20 min at 4° C. The acetone was aspirated and plates air-dried for 20 min at room temperature. The plates were washed 3× with 200 μL/well 1×PBS, 0.05% Tween-20 (PBST) and blocked with 200 μL/well 5% non-fat dry milk (Fisher cat #50-195-952) in PBST for 1 h with shaking (500 rpm) on an orbital plate shaker. The blocking solution was discarded and cells incubated with 100 μL/well mouse anti-F protein antibody (MilliporeSigma cat #MAB8599) diluted 1:2,000 in diluent (blocking solution diluted 1:1 in 1×PBS pH 7.4) for 2 h with shaking. Plates were washed 5× with 300 μL/well PBST and incubated with 100 μL/well HRP-conjugated goat anti-mouse IgG antibody (SouthernBiotech cat #1030-05) diluted 1:1,000 in diluent for 1 h with shaking. Plates were washed 5× with 300 μL/well PBST and incubated with 100 μL/well TMB substrate (Fisher cat #BDB555214) for ˜5 min. The reaction was stopped with 100 μL/well 1N H2SO4. Absorbance was read at 450 nm with an EnSpire multimode plate reader (PerkinElmer). The mean A450 for the cells only control was subtracted from all A450 values, and the percent virus neutralisation calculated for each compound concentration, relative to the virus only control.
# RSV A2 strain = assay: RSV microneutralization assay, RSV A2 strain; format: cell-based; details: MOI 0.002, HEp-2 cells, day 6
# Method: as §1, with “HEp-2 cells (ATCC #CCL-23) were seeded at 5E4/well/200 μL in DMEM (Fisher cat #11965118) supplemented with 10% heat-inactivated (HI) fetal bovine serum (HI-FBS; Fisher cat #10-082-147), 1× penicillin-streptomycin (P/S, 100 μg/mL; Fisher cat #MT30002C), and 1× L-glutamine (L-Gln, 2 mM; Fisher cat #25030-164) in 96-well tissue culture treated plates (Fisher cat #08-772-17) and incubated overnight at 37° C. and 5% CO2. Duplicate” for “Duplicate”
# RSV B1 strain = assay: RSV microneutralization assay, RSV B1 strain; format: cell-based; details: human respiratory syncytial virus; MOI 0.003, HEp-2 cells, day 6
# Method: (§2) HEp-2 cells (ATCC #CCL-23) were seeded at 5E4/well/200 μL in DMEM (Fisher cat #11965118) supplemented with 10% heat-inactivated (HI) fetal bovine serum (HI-FBS; Fisher cat #10-082-147), 1× penicillin-streptomycin (P/S, 100 μg/mL; Fisher cat #MT30002C), and 1× L-glutamine (L-Gln, 2 mM; Fisher cat #25030-164) in 96-well tissue culture treated plates (Fisher cat #08-772-17) and incubated overnight at 37° C. and 5% CO2. Duplicate 10-fold serial dilutions of compound in DMEM with 2% HI-FBS, 1× P/S, 2 mM L-Gln were prepared in 96-well tissue culture plates at 60 μL/well. The RSV Long strain (RetroVirox, San Diego), RSV A2 strain (Virapur, San Diego), RSV B1 strain (RetroVirox, San Diego), or RSV strain CH18537 (RetroVirox, San Diego), were diluted in DMEM with 2% HI-FBS, 1× P/S, 2 mM L-Gln and 60 μL/well added to 60 μL compound for a multiplicity of infection (MOI) of 0.002 (Long, A2), 0.003 (B1), or 0.004 (CH18537). Virus only (no drug) and cells only (no virus, no drug) controls were included on each plate. The compound-virus mix was incubated for 1 h at 37° C. and 5% CO2. […] Absorbance was read at 450 nm with an EnSpire multimode plate reader (PerkinElmer). The mean A450 for the cells only control was subtracted from all A450 values, and the percent virus neutralisation calculated for each compound concentration, relative to the virus only control.
# [1] = Inherent cytotoxicity run in parallel with the CPE assay (CellTiter-Glo); format: cell-based; details: human, HEp-2 cells, 4 days post treatment
# Method: (§3) In parallel with the CPE assay, the inherent cytotoxicity of several test articles was also determined. Briefly, ten four-fold serial dilutions of each TA starting at 10 μM were prepared in triplicate for inoculation with HEp-2 cells in 96-well culture plates. The cell viability was determined four days post treatment using CellTiter-Glo kit.
# [2] = system: RSV (Respiratory Syncytial Virus strain A2); assay: RSV cytopathic effects (CPE) assay; format: cell-based; details: human respiratory syncytial virus
# Method: The activity of anti-RSV compounds and conjugates was determined using an in vitro cell-based assay following a standard protocol in the field. Briefly, ten four-fold serial dilutions of each test article (TA) starting at 10 μM were prepared in duplicate and incubated with RSV (Respiratory Syncytial Virus strain A2) at a multiplicity of infection (MOI) of 0.01, for one hour. The RSV-TA mix was then added to HEp-2 cells seeded in 96-well plates and incubated for one hour.
# HEp-2 cells = assay: Inherent cytotoxicity run in parallel with the CPE assay (CellTiter-Glo); format: cell-based; details: 4 days post treatment, DMSO, value in %
# Method: as §3
# RSV strain CH18537 = assay: RSV microneutralization assay, RSV strain CH18537; format: cell-based; details: human respiratory syncytial virus; MOI 0.004, HEp-2 cells, day 6
# Method: as §2
# RSV = details: prophylactic use; cited from earlier work
# [3] = human respiratory syncytial virus, MOI 0.002, HEp-2 cells, day 6
# [4] = human respiratory syncytial virus
# [5] = 96 h, RSV A2, MOI 0.01, HEp-2 cells, day 4, crystal violet, average of duplicate wells, read-out: EC50
# [6] = human respiratory syncytial virus, HEp-2, […]
compound,measurement,setting,value
C#CCOCCOCCOCCOCCO[C@@H]1CN(c2nc3cc([C@@H]4CCCCN4C(=O)c4cc(Cl)ccc4NS(C)(=O)=O)nn3cc2C)C[C@H]1N [Int-04],EC50,RSV Long strain; [3],> 1000 nM
C#CCOCCOCCOCCOCCn1c(CN2C(=O)C3(CCN(C(=O)OC(C)(C)C)CC3)c3ccncc32)nc2cc(Cl)ccc21 [Int-41],EC50,RSV Long strain; [3],14 nM
same,EC50,RSV A2 strain; [4],15 nM
same,EC50,RSV B1 strain,3.6 nM
C#CCOCCOCCOCCOCCN1CCN(CCCCN[C@H]2CCN(c3nc4cc([C@@H]5CCCCN5C(=O)c5cc(Cl)ccc5NS(C)(=O)=O)nn4cc3C)C2)CC1 [Int-24],EC50,RSV Long strain; [3],> 1000 nM
C#CCOCCOCCOCCOCCOCCOCCOCCOCCNC(=O)CN(CC(=O)O)C(=O)CCCCN[C@H]1CCN(c2nc3cc([C@@H]4CCCCN4C(=O)c4cc(Cl)ccc4NS(C)(=O)=O)nn3cc2C)C1 [Int-25],EC50,RSV Long strain; [3],92 nM
C#CCOCCOCCOCCOCCN[C@H]1CCN(c2nc3cc(C4CCCCN4C(=O)c4cc(Cl)ccc4NS(C)(=O)=O)nn3cc2C)C1 (some centres unmarked) [Int-7],EC50,RSV Long strain; [3],18 nM
same,CC50 at 4 days,[1],10400 nM
same,EC50,[2]; [5],0.353 nM
C#CCOCCOCCOCCOCCC(=O)N(CC(=O)NCCOCCOCCOCCOCCOCCOCCOCCOCCOCCOCCOCCOC)CC(=O)NCCn1cc(COCCOCCOCCOCCOCCOCCOCCCCN[C@H]2CCN(c3nc4cc([C@@H]5CCCCN5C(=O)c5cc(Cl)ccc5NS(C)(=O)=O)nn4cc3C)C2)nn1 [Int-27],EC50,RSV Long strain; [3],200 nM
C#CCOCCOCCOCCOCCC(=O)N[C@H]1CCN(c2nc3cc([C@@H]4CCCCN4C(=O)c4cc(Cl)ccc4NS(C)(=O)=O)nn3cc2C)C1 [Int-9],EC50,RSV Long strain; [3],1500 nM
same,CC50 at 4 days,[1],49700 nM
same,EC50,[2]; [5],272 nM
C[S+](C)[O-] [DMSO],CC50,HEp-2 cells,1.17%
C#CCOCCOCCOCCOCCC(=O)NCCCCn1c(CN2C(=O)C3(CCN(C(=O)OC(C)(C)C)CC3)c3ccncc32)nc2cc(Cl)ccc21 [Int-35],EC50,RSV Long strain; [3],0.34 nM
same,EC50,RSV A2 strain; [4],0.74 nM
"Cc1cn2nc([C@@H]3CCCCN3C(=O)c3cc(Cl)ccc3NS(C)(=O)=O)cc2nc1N1CC[C@H](N)C1 [Presatovir, reference compound]",EC50,RSV Long strain; [3],0.0084 nM
same,EC50,RSV A2 strain; [4],0.014 nM
same,EC50,RSV strain CH18537,0.32 nM
same,EC50,RSV B1 strain,0.82 nM
same,EC50,[2]; [5],0.0769 nM
"Cc1nnnn1N=Cc1ccc(O)c(C(c2ccc(O)cc2)c2cc(C=Nn3nnnc3C)ccc2O)c1 (centres unmarked) [VP14637, MDT 637, reference compound]",EC50,RSV Long strain; [3],0.09 nM
C#CCOCCOCCOCCOCCN[C@@H]1CN(c2nc3cc([C@@H]4CCCCN4C(=O)c4cc(Cl)ccc4NS(C)(=O)=O)nn3cc2C)C[C@@H]1O [Int-03],EC50,RSV Long strain; [3],> 1000 nM
C#CCOCCOCCOCCOCCOCCOCCOCCCCN[C@H]1CCN(c2nc3cc([C@@H]4CCCCN4C(=O)c4cc(Cl)ccc4NS(C)(=O)=O)nn3cc2C)C1 [Int-05],EC50,RSV Long strain; [3],> 1000 nM
C#CCOCCOCCOCCOCCC(=O)N[C@@H](CS(=O)(=O)O)C(=O)N1CCN(CCCN[C@H]2CCN(c3nc4cc([C@@H]5CCCCN5C(=O)c5ccc(Cl)cc5NS(C)(=O)=O)nn4cc3C)C2)CC1 [Int-23],EC50,RSV Long strain; [3],> 1000 nM
C#CCOCCOCCOCCOCCOCCOCCOCCOCCN[C@H]1CCN(c2nc3cc([C@@H]4CCCCN4C(=O)c4cc(Cl)ccc4NS(C)(=O)=O)nn3cc2C)C1 [Int-8],EC50,RSV Long strain; [6],43 nM
same,EC50,"[2]; HEp-2, 96 h",2.29 nM
C#CCOCCOCCOCCOCCC(=O)NCCCCn1c(CN2C(=O)C3(CCN(C(=O)OC(C)C)CC3)c3ccncc32)nc2cc(Cl)ccc21 [Int-34],EC50,RSV Long strain; [3],0.13 nM
C#CCOCCOCCOCCOCCOCCOCCOCCOCCNC(=O)CN(CC(=O)NCCOCCOCCOCCOCCOCCOCCOCCOCCOCCOCCOCCOC)C(=O)CCCCN[C@H]1CCN(c2nc3cc(C4CCCCN4C(=O)c4cc(Cl)ccc4NS(C)(=O)=O)nn3cc2C)C1 (some centres unmarked) [Int-26],EC50,RSV Long strain; [3],170 nM
C#CCOCCOCCNC(=N)N[C@H]1CCN(c2nc3cc([C@@H]4CCCCN4C(=O)c4cc(Cl)ccc4NS(C)(=O)=O)nn3cc2C)C1 [Int-6],EC50,[2]; [5],2200 nM
"NC(=O)c1ncn([C@@H]2O[C@H](CO)[C@@H](O)[C@H]2O)n1 [Ribavirin, reference compound]",CC50 at 4 days,[1],174000 nM
same,EC50,[2]; [5],25800 nM
C#CCOCCOCCOCCOCCO[C@H]1CN(c2nc3cc([C@@H]4CCCCN4C(=O)c4cc(Cl)ccc4NS(C)(=O)=O)nn3cc2C)C[C@H]1N [Int-02],EC50,RSV Long strain; [3],110 nM
C#CCOCCOCCOCCOCCN1CCN(CCCN[C@H]2CCN(c3nc4cc([C@H]5CCCCN5C(=O)c5cc(Cl)ccc5NS(C)(=O)=O)nn4cc3C)C2)CC1 [Int-10],EC50,RSV Long strain; [6],97 nM
C#CCOCCOCCOCCOCCNCC1CN(c2nc3cc([C@@H]4CCCCN4C(=O)c4cc(Cl)ccc4NS(C)(=O)=O)nn3cc2C)C1 [Int-01],EC50,RSV Long strain; [6],98 nM
Palivizumab,effective at reducing hospitalization rates,RSV,60%
same,EC50,"RSV Long strain; MOI 0.002, HEp-2 cells, day 6",17 nM
same,EC50,RSV A2 strain,21 nM
